{
  "source": "patent US12624057B2",
  "about": "“Bisphosphonate quinolone conjugates and uses thereof” (BIOVINC, LLC, priority 2016, dated 2026)",
  "key": {"[1]": {"test_system": "biofilms of S. aureus strain ATCC-6538", "test": "Preformed biofilms on HA discs, S. aureus", "assay_type": "cell-based, Staphylococcus aureus", "settings": "for bactericidal activity / reduction of CFUs against established biofilm (in words): HA as substrate", "protocol": "Antimicrobial susceptibility testing of BP-ciprofloxacin against preformed biofilms of S. aureus strain ATCC-6538 and P. aeruginosa strain ATCC-15442: Strains cultured on appropriate agar plates (Columbia agar plate for S. aureus; MacConkey agar plate for P. aeruginosa) were transferred to liquid microbiological media and incubated for 24 h/37° C. under aerobic conditions. After incubation, strains were diluted to the density of 1 MF. The microbial dilutions were introduced to wells of 24-well plates containing HA discs as a substrate, or simply to polystyrene wells where the bottom surface of the wells served as the substrate for biofilm development. Strains were incubated at 37° C. for 4 hrs. Next, the microbe-containing solutions were removed from the wells. The surfaces, HA discs and polystyrene plates, were gently rinsed to leave adhered cells and to remove planktonic or loosely-bound microbes. Surfaces prepared in this manner were immersed in fresh TSB medium containing 0.24-125 mg/L of BP-ciprofloxacin conjugate. After 24 hrs of incubation at 37° C. the surfaces were rinsed using physiological saline solution and transferred to 1 mL of 0.5% saponin (Sigma-Aldrich, St Louis, MO). The surfaces were vortex-mixed vigorously for 1 minute to detach cells. Subsequently, all microbial suspensions were diluted 10 to 10^9 times. Each dilution ([…]) was cultured on the appropriate stable medium (MacConkey, Columbia for P. aeruginosa and S. aureus, respectively) and incubated at 37-C for 24 hours. After this time, the microbial colonies were counted and the number of cells forming biofilm was assessed. Results were presented as the mean number of CFU per square millimeter surface±standard error of the mean. To estimate the exact surface area of HA discs, x-ray tomographic analysis was applied. For estimation of the area of test plate bottoms, the equation for circle area: πr2 was applied.\nAntimicrobial susceptibility testing of 6 against preformed biofilms of S. aureus strain ATCC-6538 and P. aeruginosa strain ATCC-15442: Strains cultured on appropriate agar plates (Columbia agar plate for S. aureus; MacConkey agar plate for P. aeruginosa) were transferred to liquid microbiological media and incubated for 24 hrs/37° C. under aerobic conditions. After incubation, strains were diluted to the density of 1 MF. The microbial dilutions were introduced to wells of 24-well plates containing HA discs as a substrate, or simply to polystyrene wells where the bottom surface of the wells served as the substrate for biofilm development. Strains were incubated at 37° C. for 4 hrs. Next, the microbe-containing solutions were removed from the wells. The surfaces, HA discs and polystyrene plates, were gently rinsed to leave adhered cells and to remove planktonic or loosely-bound microbes. […] After 24 hrs of incubation at 37° C. the surfaces were rinsed using physiological saline solution and transferred to 1 mL of 0.5% saponin (Sigma-Aldrich, St Louis, MO). The surfaces were vortex-mixed vigorously for 1 minute to detach cells. Subsequently, all microbial suspensions were diluted 10-1 to 10-9 times. Each dilution ([…]) was cultured on the appropriate stable medium (MacConkey, Columbia for P. aeruginosa and S. aureus, respectively) and incubated at 37° C. for 24 hrs. After this time, the microbial colonies were counted and the number of cells forming biofilm was assessed. Results were presented as the mean number of CFU per square millimeter surface±standard error of the mean. To calculate the surface area of HA discs, x-ray tomographic analysis was applied. For estimation of the area of test plate bottoms, the equation for circle area: πr^2 was applied."}, "[2]": {"test_system": "Aggregatibacter actinomycetemcomitans biofilms on titanium implants", "test": "Rat jawbone peri-implant osteomyelitis model, first animal experiment", "assay_type": "in vivo, Sprague-Dawley rats", "settings": "for activity compared with ciprofloxacin in multiple doses (in words): conjugate 10 mg/kg single dose versus ciprofloxacin 30 mg/kg total; for efficacy (in words): single dose 0.1 and 1 mg/kg", "from_the_text": "Since this BP-ciprofloxacin conjugate is novel and has not been tested in vivo, we performed an initial safety and efficacy study in an animal model of peri-implant osteomyelitis. This model is a unique in-house jawbone peri-implant osteomyelitis model that was developed specifically for translational value to study biofilm-mediated disease and host response in vivo (Freire, et al, Development of animal model for Aggregatibacter actinomycetemcomitans biofilm-mediated oral osteolytic infection: a preliminary study. J Periodontol 2011; 82:778-89). […] After biofilms are established on the implants in vitro, they are surgically transferred to the jawbone of each rat. Animals are anesthetized, the cheeks are retracted and a transmucosal osteotomy is performed so implants can be manually inserted into the osteotomy and secured. Two biofilm-inoculated implants are placed in each rat (n=12 rats and 24 implants) in the palatal bone bilaterally.\nTo determine appropriate dosing concentrations, we calculated approximate initial doses for the conjugate based on previous studies and pharmacokinetic data using similar target and release strategies and also rodents (Houghton, et al., Linking bisphosphonates to the free amino groups in fluoroquinolones: preparation of osteotropic prodrugs for the prevention of osteomyelitis. J Med Chem 2008; 51:6955-69; Morioka, et al., Design, synthesis, and biological evaluation of novel estradiol-bisphosphonate conjugates as bone-specific estrogens. Bioorg Med Chem 2010; 18:1143-8). We expected that increasing doses of 0.1, 1 and 10 mg/kg BP-ciprofloxacin molar equivalents will allow us to determine antimicrobial activity in 2 test animals per group based on sample size estimations and previous experience with the animal model (Freire, et al, Development of animal model for Aggregatibacter actinomycetemcomitans biofilm-mediated oral osteolytic infection: a preliminary study. J Periodontol 2011; 82:778-89). Animals were dosed via intraperitoneal injection under general anesthesia, and all compounds were constituted in sterile physiological injectable saline at appropriate pH. One week after pharmacotherapy, all animals were sacrificed and resection of peri-implant tissues was performed, and tissues were immediately homogenized and processed for quantitative assessment of microbial load. Animals were monitored throughout the study period for local or systemic adverse effects of pharmacotherapy.\nThis animal model is an in-house jawbone peri-implant osteomyelitis model designed specifically to study biofilm-mediated disease and host response in vivo (Freire, et al, Development of animal model for Aggregatibacter actinomycetemcomitans biofilm-mediated oral osteolytic infection: a preliminary study. J Periodontol 2011; 82:778-89). […] After biofilms were established on the implants in vitro, they were surgically transferred to the jawbone of each rat. For surgery, animals were anesthetized with 4% isoflurane inhalant initially followed by intraperitoneal injection of ketamine (80-90 mg/kg) plus xylazine (5-10 mg/kg). Then local anesthesia was given via infiltration injection of bupivicaine 0.25% at the surgical site. Buprenorphine sustained release (1.0-1.2 mg/kg) was then given subcutaneously as preemptive analgesia before making initial incisions. Once anesthetized, the buccal mucosa of each rat was retracted and a transmucosal osteotomy was performed with a pilot drill into the alveolar ridge in the natural diastema of the anterior palate. Implants were then manually inserted into the osteotomy and secured into the bone until the platform is at mucosal level."}, "[3]": {"test_system": "S. aureus ATCC6538 biofilms", "test": "Survival of S. aureus biofilm on pretreated, rinsed HA discs", "assay_type": "cell-based, Staphylococcus aureus", "settings": "for concentration that inhibited all biofilm growth: pretreated, rinsed HA discs; for times more active than ciprofloxacin alone in achieving complete bactericidal action: allowing for molecular mass; for ability to prevent biofilm formation on pretreated HA (in words): pretreated HA discs", "protocol": "HA discs incubated in DMSO or phosphate buffer served as control samples. Next, discs were rinsed 3 times with sterile water. After rinsing, 2 mL of 0.5 MF of. S. aureus ATCC6538 were introduced to wells containing HA discs as a substrate for biofilm development and biofilms were formed as before."}, "[4]": {"settings": "HA discs as substrate (Example 1)"}, "[5]": {"settings": "HA discs as substrate (Example 5)"}, "[6]": {"settings": "ciprofloxacin, 10 mg/kg 3×/week (30 mg/kg total)"}, "[7]": {"settings": "24 hrs of growth (Examples 5, 6)"}, "[8]": {"settings": "conjugate, single dose 10 mg/kg intraperitoneal"}},
  "note": "Entries after “also recorded” stand apart in the source; their conditions may differ.",
  "data": [
    {"smiles": "O=C(O)c1cn(C2CC2)c2cc(N3CCNCC3)c(F)cc2c1=O", "note": "[ciprofloxacin, reference compound]", "values": [
      {"measurement": "bactericidal activity / reduction of CFUs against established biofilm (in words)", "setting": "[1]", "result": "statistically significant bactericidal activity"},
      {"measurement": "MBIC90", "setting": "[1]; [4]", "result": 8, "unit": "µg/mL"},
      {"measurement": "MBIC90", "setting": "[1]; [5]", "result": 8, "unit": "µg/mL"},
      {"measurement": "bacterial killing", "setting": "[2]; [6]", "result": 90, "unit": "%"},
      {"measurement": "reduction of bacterial load", "setting": "[2]; [6]", "result": 1, "unit": "log"},
      {"measurement": "concentration that inhibited all biofilm growth", "setting": "[3]; 24 hrs of growth (Example 1)", "result": 100, "unit": "µg/mL"},
      {"measurement": "concentration that inhibited all biofilm growth", "setting": "[3]; [7]", "result": 100, "unit": "µg/mL"}
    ]},
    {"smiles": "O=C(O)c1cn(C2CC2)c2cc(N3CCN(C(=O)Oc4ccc(CC(P(=O)(O)O)P(=O)(O)O)cc4)CC3)c(F)cc2c1=O", "note": "[Compound 6, 1-cyclopropyl-7-(4-((4-(2,2-diphosphonoethyl)phenoxy)carbonyl)piperazin-1-yl)-6-fluoro-4-oxo-1,4-dihydroquinoline-3-carboxylic acid]", "values": [
      {"measurement": "bactericidal activity / reduction of CFUs against established biofilm (in words)", "setting": "[1]", "result": "statistically significant (p<0.05, Kruskal-Wallis test) bactericidal activity"},
      {"measurement": "bactericidal activity / reduction of CFUs against established biofilm (in words)", "setting": "[1]; listed as BP-ciprofloxacin", "result": "statistically significant bactericidal activity"},
      {"measurement": "bactericidal activity / reduction of CFUs against established biofilm (in words)", "setting": "[1]; listed as conjugate", "result": "statistically significant bactericidal activity and reduction of colony forming units"},
      {"measurement": "MBIC50", "setting": "[1]; [4]", "result": 8, "unit": "µg/mL"},
      {"measurement": "MBIC90", "setting": "[1]; [4]", "result": 50, "unit": "µg/mL"},
      {"measurement": "MBIC50", "setting": "[1]; [5]", "result": 16, "unit": "µg/mL"},
      {"measurement": "MBIC90", "setting": "[1]; [5]", "result": 100, "unit": "µg/mL"},
      {"measurement": "greater bactericidal activity than multiple dosing of ciprofloxacin", "setting": "[2]; conjugate 10 mg/kg single dose", "result": "~1", "unit": "log"},
      {"measurement": "activity compared with ciprofloxacin in multiple doses (in words)", "setting": "[2]", "result": "nearly an order of magnitude greater activity than ciprofloxacin alone"},
      {"measurement": "activity compared with ciprofloxacin in multiple doses (in words)", "setting": "[2]; listed as BCC", "result": "an order of magnitude greater activity than the parent antibiotic ciprofloxacin alone; also recorded: approximately as effective as ciprofloxacin given at 30 mg/kg total dose"},
      {"measurement": "activity compared with ciprofloxacin in multiple doses (in words)", "setting": "[2]; listed as BP-ciprofloxacin", "result": "more than an order of magnitude greater activity than ciprofloxacin alone; also recorded: superior to multiple dosing of the parent antibiotic ciprofloxacin"},
      {"measurement": "bacterial killing / bactericidal activity", "setting": "[2]; [8]", "result": 99, "unit": "%"},
      {"measurement": "reduction of bacterial load versus negative control", "setting": "[2]; [8]", "result": 2, "unit": "log"},
      {"measurement": "efficacy (in words)", "setting": "[2]; conjugate", "result": "little effect; also recorded: no efficacy; also recorded: ineffective"},
      {"measurement": "efficacy (in words)", "setting": "[2]; conjugate, listed as BP-ciprofloxacin", "result": "little effect; also recorded: not efficacious"},
      {"measurement": "times more active than ciprofloxacin alone in achieving complete bactericidal action", "setting": "[3]", "result": 20},
      {"measurement": "times more active than ciprofloxacin alone in achieving complete bactericidal action", "setting": "[3]; listed as BP-ciprofloxacin", "result": 20},
      {"measurement": "ability to prevent biofilm formation on pretreated HA (in words)", "setting": "[3]", "result": "superior antimicrobial activity"},
      {"measurement": "ability to prevent biofilm formation on pretreated HA (in words)", "setting": "[3]; listed as BCC", "result": "inhibited"},
      {"measurement": "concentration that inhibited all biofilm growth", "setting": "[3]; 24 hrs of growth (Example 1)", "result": 10, "unit": "µg/mL"},
      {"measurement": "concentration that inhibited all biofilm growth", "setting": "[3]; [7]", "result": 10, "unit": "µg/mL"}
    ]}
  ]
}
